In PMC7827406, “Structure–Activity Relationship (SAR) Study of Spautin-1 to Entail the Discovery of Novel NEK4 Inhibitors” (International Journal of Molecular Sciences, 2021):
Read-outs that look alike come from different tables or passages of the source.

Assays:
Assay in all cases: biochemical
Set-up in all cases: Eurofins KinaseProfiler full panel at Km ATP, residual kinase activity (%) relative to DMSO
FGFR3(h) = FGFR3(h) (Homo sapiens, UniProt P22607)
How it was run: (§1)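 Compounds screened at 10 µM in radiometric kinase activity assays at Km ATP, reported as remaining kinase activity (%). A KINOMEscan competition-binding screen at 10 µM measured DNA-tagged kinase retained on immobilized active-site ligand by qPCR.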

NDR2(h) = target: T1, NDR2(h) (Homo sapiens, UniProt Q9Y2H1)
T1 construct: gene STK38L
T1 sequence (Q9Y2H1 whole entry): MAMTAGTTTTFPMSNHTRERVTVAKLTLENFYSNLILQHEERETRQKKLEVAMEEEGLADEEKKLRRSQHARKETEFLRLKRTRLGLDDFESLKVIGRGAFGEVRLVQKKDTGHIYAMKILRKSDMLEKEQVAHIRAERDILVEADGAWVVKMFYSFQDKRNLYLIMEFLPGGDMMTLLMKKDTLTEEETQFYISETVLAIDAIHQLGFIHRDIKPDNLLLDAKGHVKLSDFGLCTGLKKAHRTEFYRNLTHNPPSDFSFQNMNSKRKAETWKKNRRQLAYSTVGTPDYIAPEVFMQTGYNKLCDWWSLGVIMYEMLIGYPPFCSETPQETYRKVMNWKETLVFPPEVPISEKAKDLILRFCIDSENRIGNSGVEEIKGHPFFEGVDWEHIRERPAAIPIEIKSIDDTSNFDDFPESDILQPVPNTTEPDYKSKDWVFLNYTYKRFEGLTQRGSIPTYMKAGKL
How it was run: as §1

PhKγ2(h) = target: T2, PhKγ2(h) (Homo sapiens, UniProt P15735)
T2 construct: gene PHKG2
T2 sequence (P15735 1-406): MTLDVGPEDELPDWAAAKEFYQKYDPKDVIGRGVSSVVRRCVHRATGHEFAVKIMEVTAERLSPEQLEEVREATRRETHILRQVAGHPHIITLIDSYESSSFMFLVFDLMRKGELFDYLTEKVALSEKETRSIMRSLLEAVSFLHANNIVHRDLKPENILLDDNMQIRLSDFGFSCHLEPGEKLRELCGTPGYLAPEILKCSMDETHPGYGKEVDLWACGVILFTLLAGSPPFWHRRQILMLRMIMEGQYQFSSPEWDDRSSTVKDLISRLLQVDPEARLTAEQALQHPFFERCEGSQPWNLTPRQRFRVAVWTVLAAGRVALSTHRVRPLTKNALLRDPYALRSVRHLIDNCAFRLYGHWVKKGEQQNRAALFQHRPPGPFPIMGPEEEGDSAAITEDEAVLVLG
How it was run: as §1

ROCK-I(h) = target: T3, ROCK-I(h) (Homo sapiens, UniProt Q13464)
T3 construct: gene ROCK1
T3 sequence (Q13464 whole entry): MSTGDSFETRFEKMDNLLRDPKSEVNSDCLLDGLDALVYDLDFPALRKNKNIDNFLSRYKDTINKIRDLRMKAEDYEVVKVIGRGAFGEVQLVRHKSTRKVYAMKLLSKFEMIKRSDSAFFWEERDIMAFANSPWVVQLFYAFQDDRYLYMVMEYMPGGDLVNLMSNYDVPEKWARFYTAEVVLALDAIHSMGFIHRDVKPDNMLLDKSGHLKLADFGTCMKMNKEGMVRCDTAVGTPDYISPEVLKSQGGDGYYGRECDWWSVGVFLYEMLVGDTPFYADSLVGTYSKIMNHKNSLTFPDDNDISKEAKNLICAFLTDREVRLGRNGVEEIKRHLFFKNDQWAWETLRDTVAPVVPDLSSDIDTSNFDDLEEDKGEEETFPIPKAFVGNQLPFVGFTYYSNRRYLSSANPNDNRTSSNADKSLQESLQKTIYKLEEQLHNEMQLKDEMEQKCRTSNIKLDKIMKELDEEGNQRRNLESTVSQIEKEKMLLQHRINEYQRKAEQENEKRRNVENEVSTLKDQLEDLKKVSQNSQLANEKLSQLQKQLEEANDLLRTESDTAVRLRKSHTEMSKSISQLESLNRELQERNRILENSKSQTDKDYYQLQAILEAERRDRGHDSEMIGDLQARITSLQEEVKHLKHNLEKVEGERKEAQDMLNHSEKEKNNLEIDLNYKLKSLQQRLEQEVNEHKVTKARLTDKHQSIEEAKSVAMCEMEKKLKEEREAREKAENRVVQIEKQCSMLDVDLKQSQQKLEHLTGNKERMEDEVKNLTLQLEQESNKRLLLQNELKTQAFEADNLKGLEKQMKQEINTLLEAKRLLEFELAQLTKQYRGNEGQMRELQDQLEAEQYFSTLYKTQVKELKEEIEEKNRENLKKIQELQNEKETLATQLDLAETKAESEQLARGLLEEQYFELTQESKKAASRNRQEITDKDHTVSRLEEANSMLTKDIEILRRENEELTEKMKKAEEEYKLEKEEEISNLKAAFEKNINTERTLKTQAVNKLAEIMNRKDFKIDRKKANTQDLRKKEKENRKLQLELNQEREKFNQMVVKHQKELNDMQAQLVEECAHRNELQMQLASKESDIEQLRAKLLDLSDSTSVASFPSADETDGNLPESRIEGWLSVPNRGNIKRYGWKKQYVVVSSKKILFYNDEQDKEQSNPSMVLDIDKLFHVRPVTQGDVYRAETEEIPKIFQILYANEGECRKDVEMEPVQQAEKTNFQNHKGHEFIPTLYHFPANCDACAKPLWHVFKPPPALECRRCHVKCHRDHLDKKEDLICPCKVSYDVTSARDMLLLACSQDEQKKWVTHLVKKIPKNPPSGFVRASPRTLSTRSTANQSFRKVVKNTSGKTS
How it was run: as §1

Tec(h) activated = target: T4, Tec(h) activated (Homo sapiens, UniProt P42680)
T4 sequence (P42680 1-631): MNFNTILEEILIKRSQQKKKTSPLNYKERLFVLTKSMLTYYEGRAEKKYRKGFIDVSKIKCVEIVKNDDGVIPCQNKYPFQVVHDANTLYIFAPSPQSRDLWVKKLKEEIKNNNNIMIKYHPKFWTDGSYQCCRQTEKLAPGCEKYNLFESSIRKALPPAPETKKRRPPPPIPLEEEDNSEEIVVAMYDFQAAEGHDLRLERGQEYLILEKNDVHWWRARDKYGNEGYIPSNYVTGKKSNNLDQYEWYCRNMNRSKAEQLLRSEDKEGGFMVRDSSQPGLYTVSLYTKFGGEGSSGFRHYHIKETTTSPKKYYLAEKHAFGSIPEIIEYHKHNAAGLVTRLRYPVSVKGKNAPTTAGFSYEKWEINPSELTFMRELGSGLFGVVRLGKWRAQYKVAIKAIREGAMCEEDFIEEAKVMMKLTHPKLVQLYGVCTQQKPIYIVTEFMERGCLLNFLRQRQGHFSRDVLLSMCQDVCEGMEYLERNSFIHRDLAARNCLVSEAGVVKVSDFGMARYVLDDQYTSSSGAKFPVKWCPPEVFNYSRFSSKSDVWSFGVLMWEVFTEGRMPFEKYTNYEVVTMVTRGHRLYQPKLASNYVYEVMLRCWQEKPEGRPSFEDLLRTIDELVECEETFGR
How it was run: as §1

ULK1(h) = target: T5, ULK1(h) (Homo sapiens, UniProt O75385)
T5 sequence (O75385 1-1050): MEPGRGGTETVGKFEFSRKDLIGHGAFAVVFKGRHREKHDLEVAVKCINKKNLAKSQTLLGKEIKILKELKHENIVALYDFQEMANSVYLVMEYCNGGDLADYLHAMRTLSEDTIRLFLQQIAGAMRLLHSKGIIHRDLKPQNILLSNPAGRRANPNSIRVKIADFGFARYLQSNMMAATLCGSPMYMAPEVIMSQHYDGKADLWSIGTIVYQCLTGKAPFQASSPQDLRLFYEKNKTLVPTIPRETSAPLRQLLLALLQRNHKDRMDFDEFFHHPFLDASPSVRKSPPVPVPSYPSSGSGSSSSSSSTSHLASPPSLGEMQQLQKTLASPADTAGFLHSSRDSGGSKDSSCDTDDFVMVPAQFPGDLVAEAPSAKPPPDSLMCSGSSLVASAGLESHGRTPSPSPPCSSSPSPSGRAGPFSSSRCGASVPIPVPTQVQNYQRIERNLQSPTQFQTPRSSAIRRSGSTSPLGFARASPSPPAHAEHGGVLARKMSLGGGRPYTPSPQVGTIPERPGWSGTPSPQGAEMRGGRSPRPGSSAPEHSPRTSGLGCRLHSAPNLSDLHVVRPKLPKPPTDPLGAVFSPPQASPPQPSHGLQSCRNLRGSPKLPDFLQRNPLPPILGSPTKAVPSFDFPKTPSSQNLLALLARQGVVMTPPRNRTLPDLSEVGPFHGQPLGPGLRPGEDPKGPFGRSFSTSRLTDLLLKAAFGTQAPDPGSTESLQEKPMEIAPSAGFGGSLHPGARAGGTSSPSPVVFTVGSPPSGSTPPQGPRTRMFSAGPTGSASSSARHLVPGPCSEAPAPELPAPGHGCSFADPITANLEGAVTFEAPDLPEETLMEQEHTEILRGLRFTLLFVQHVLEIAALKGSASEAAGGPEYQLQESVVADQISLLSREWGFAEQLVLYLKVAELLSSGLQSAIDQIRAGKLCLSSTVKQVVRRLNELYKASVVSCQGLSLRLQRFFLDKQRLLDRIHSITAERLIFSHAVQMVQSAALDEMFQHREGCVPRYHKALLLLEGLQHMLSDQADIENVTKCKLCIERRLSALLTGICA
How it was run: as §1

[1] = read-out: Residual activity (%) 5at
[2] = read-out: Residual activity (%) 5as
[3] = read-out: Residual activity (%) 5ay
[4] = read-out: Residual activity (%) Spautin-1 5aa

Sequence of FGFR3(h) (P22607 whole entry): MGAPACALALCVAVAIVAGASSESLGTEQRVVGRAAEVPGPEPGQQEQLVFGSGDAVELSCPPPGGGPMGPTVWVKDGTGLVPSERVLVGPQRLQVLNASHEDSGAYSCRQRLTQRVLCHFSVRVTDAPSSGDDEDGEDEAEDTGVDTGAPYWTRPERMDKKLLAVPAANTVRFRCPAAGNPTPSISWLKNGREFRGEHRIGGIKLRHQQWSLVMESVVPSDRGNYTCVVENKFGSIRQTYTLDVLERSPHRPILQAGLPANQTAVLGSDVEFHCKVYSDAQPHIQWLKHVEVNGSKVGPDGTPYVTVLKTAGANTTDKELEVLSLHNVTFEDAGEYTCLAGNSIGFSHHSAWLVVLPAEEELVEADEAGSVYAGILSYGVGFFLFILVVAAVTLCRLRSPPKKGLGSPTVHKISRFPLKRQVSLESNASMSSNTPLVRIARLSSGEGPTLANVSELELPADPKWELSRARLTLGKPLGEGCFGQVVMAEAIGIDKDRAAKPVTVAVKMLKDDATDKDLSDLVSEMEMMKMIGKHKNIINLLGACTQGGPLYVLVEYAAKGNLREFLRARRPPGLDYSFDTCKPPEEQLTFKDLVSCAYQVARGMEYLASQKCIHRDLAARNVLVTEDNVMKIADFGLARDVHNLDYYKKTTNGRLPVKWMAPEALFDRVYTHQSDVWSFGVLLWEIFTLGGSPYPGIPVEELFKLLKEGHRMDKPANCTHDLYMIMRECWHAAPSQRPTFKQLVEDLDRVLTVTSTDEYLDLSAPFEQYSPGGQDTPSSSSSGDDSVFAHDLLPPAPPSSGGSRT

**Q.** Which results are given for Fc1ccc2ncnc(NCCc3ccc(Cl)cc3)c2c1 [5at, N-[2-(4-Chlorophenyl)Ethyl]-6-Fluoro-4-Quinazolinamine]?
**A.** remaining activity at 10 µM (FGFR3(h); [1]): 99%; remaining activity at 10 µM (NDR2(h); [1]): 115%; remaining activity at 10 µM (PhKγ2(h); [1]): 82%; remaining activity at 10 µM (ROCK-I(h); [1]): 93%; remaining activity at 10 µM (Tec(h) activated; [1]): 86%; remaining activity at 10 µM (ULK1(h); [1]): 84%

**Q.** What does the source list for Fc1ccc(CCNc2ncnc3ccc(F)cc23)cc1 [5as, 6-Fluoro-N-[2-(4-Fluorophenyl)Ethyl]-4-Quinazolinamine]?
**A.** remaining activity at 10 µM (FGFR3(h); [2]): 108%; remaining activity at 10 µM (NDR2(h); [2]): 99%; remaining activity at 10 µM (PhKγ2(h); [2]): 91%; remaining activity at 10 µM (ROCK-I(h); [2]): 98%; remaining activity at 10 µM (Tec(h) activated; [2]): 100%; remaining activity at 10 µM (ULK1(h); [2]): 91%

**Q.** For COc1ccc2ncnc(Nc3cccc(F)c3)c2c1 [5ay, N-(3-Fluorophenyl)-6-Methoxy-4-Quinazolinamine], which remaining activity at 10 µM (FGFR3(h); [3]) is on record?
**A.** 94%

**Q.** And the remaining activity at 10 µM (NDR2(h); [3])?
**A.** 103%

**Q.** And the remaining activity at 10 µM (PhKγ2(h); [3])?
**A.** 109%

**Q.** What about the remaining activity at 10 µM (ROCK-I(h); [3]) of the same compound?
**A.** 96%

**Q.** What about the remaining activity at 10 µM (Tec(h) activated; [3]) of the same compound?
**A.** 76%

**Q.** And the remaining activity at 10 µM (ULK1(h); [3])?
**A.** 93%

**Q.** Fc1ccc(CNc2ncnc3ccc(F)cc23)cc1 [5aa, 6-Fluoro-N-(4-fluorobenzyl)-4-Quinazolinamine] was tested. Which remaining activity at 10 µM (FGFR3(h); [4]) did it give?
**A.** 97%

**Q.** And the remaining activity at 10 µM (NDR2(h); [4])?
**A.** 120%

**Q.** What about the remaining activity at 10 µM (PhKγ2(h); [4]) of the same compound?
**A.** 78%

**Q.** What about the remaining activity at 10 µM (ROCK-I(h); [4]) of the same compound?
**A.** 91%

**Q.** What about the remaining activity at 10 µM (Tec(h) activated; [4]) of the same compound?
**A.** 78%

**Q.** What about the remaining activity at 10 µM (ULK1(h); [4]) of the same compound?
**A.** 99%
